Measurements taken from US20050288347A1, “Certain triazole-based compounds, compositions, and uses thereof” (priority 2004, published 2005).
Entries after “also recorded” stand apart in the source; their conditions may differ.

What follows are molecules tested against protein kinase (assay: HTS ATP-utilizing enzyme assay, off-chip mobility-shift format (Caliper HTS 250)). Conditions: kinase(s) for which the compound exhibits protein kinase inhibitory activity; test compound 10 μM; active = greater than three-sigma from the mean activity of inactive compounds.
Format: biochemical, human
Method in brief: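 Kinase reactions ran 2.5 h at 20 to 22 °C with test compound at 10 μM, in a HEPES pH 7.5 master buffer containing Triton X-100 and BSA. Peptide substrate and phosphorylated product separated by mobility shift; inhibition normalized to DMSO (0%) and EDTA (100%) controls, with three-sigma thresholds for hits.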

Row | Kinase | Compound
1 | AURORA-A | Oc1cc2ccccc2cc1-c1nnc(S)n1Cc1ccco1 [3-(4-(furan-2-ylmethyl)-5-mercapto-4H-1,2,4-triazol-3-yl)naphthalen-2-ol]
2 | MSK1 | C=CCn1c(S)nnc1-c1cc2ccccc2cc1O [3-(4-allyl-5-mercapto-4H-1,2,4-triazol-3-yl)naphthalen-2-ol]
3 | AURORA-A | CCn1c(S)nnc1-c1cc2ccccc2cc1O [3-(4-ethyl-5-mercapto-4H-1,2,4-triazol-3-yl)naphthalen-2-ol]
4 | AURORA-A | COCCn1c(S)nnc1-c1cc2ccccc2cc1O [3-(5-mercapto-4-(2-methoxyethyl)-4H-1,2,4-triazol-3-yl)naphthalen-2-ol]

Same assay, conditions: test compound 10 μM; active = activity greater than three-sigma from the mean of the predominately inactive population for that enzyme

Row | Compound | protein kinase against which the compound exhibits inhibitory activity (Table 3)
5 | COc1ccc(-c2nnc(SCc3cccc(I)c3)[nH]2)cc1 [3-(3-iodobenzylthio)-5-(4-methoxyphenyl)-4H-1,2,4-triazole] | AURORA-A
6 | Cc1nnc(SCc2cccc(I)c2)[nH]1 [3-(3-iodobenzylthio)-5-methyl-4H-1,2,4-triazole] | AURORA-A; also recorded: GSK3-α; also recorded: DYRK2
7 | Ic1cccc(CSc2nnc(-c3ccccc3)[nH]2)c1 [3-(3-iodobenzylthio)-5-phenyl-4H-1,2,4-triazole] | AURORA-A; also recorded: c-TAK1
8 | Cc1ccc(-c2nnc(SCCC(=O)O)n2-c2ccc(C)cc2)cc1 [3-(4,5-dip-tolyl-4H-1,2,4-triazol-3-ylthio)propanoic acid] | DAPK1
9 | O=C(O)CCSc1nnc(-c2ccc(O)cc2)n1Cc1ccccc1 [3-(4-benzyl-5-(4-hydroxyphenyl)-4H-1,2,4-triazol-3-ylthio)propanoic acid] | GSK3-β; also recorded: GSK3-α
10 | COc1ccc(-c2nnc(SCc3ccc(Cl)cc3)n2-c2ccccc2)cc1OC [3-(4-chlorobenzylthio)-5-(3,4-dimethoxyphenyl)-4-phenyl-4H-1,2,4-triazole] | CDK1
11 | Cn1c(SCc2ccc(Cl)c(Cl)c2)nnc1-c1ccc(Cl)cc1 [3-(4-chlorophenyl)-5-(3,4-dichlorobenzylthio)-4-methyl-4H-1,2,4-triazole] | PRAK and FYN
12 | Fc1ccc(CSc2nnc(-c3ccc(OC(F)(F)F)cc3)[nH]2)cc1 [3-(4-fluorobenzylthio)-5-(4-(trifluoromethoxy)phenyl)-4H-1,2,4-triazole] | FLT-3; also recorded: AURORA-A
13 | Fc1ccc(CSc2nnc(-c3cccs3)[nH]2)cc1 [3-(4-fluorobenzylthio)-5-(thiophen-2-yl)-4H-1,2,4-triazole] | AURORA-A; also recorded: FLT-3; also recorded: DYRK2
14 | COc1ccc(Cc2nnc(SCc3cccc4ccccc34)[nH]2)cc1 [3-(4-methoxybenzyl)-5-(naphthalen-1-ylmethylthio)-4H-1,2,4-triazole] | AURORA-A
15 | COc1ccc(-c2nnc(SCc3ccc(S(C)(=O)=O)cc3)[nH]2)cc1 [3-(4-methoxyphenyl)-5-(4-(methylsulfonyl)benzylthio)-4H-1,2,4-triazole] | FLT-3
16 | O=[N+]([O-])c1ccc(CSc2nnc[nH]2)cc1 [3-(4-nitrobenzylthio)-4H-1,2,4-triazole] | MSK2 and SRC
17 | OCC(O)CSc1nnc(-c2cccc(C(F)(F)F)c2)[nH]1 (centres unmarked) [3-(5-(3-(trifluoromethyl)phenyl)-4H-1,2,4-triazol-3-ylthio)propane-1,2-diol] | AURORA-A; also recorded: FLT-3; also recorded: CHEK2
18 | OCC(O)CSc1nnc(-c2cccc(Cl)c2)[nH]1 (centres unmarked) [3-(5-(3-chlorophenyl)-4H-1,2,4-triazol-3-ylthio)propane-1,2-diol] | AURORA-A; also recorded: FLT-3; also recorded: CHEK2
19 | COc1ccc(-c2nnc(SCC(O)CO)[nH]2)cc1 (centres unmarked) [3-(5-(4-methoxyphenyl)-4H-1,2,4-triazol-3-ylthio)propane-1,2-diol] | AURORA-A; also recorded: FLT-3; also recorded: DYRK2
20 | O=[N+]([O-])c1ccc(-c2nnc(SCC(O)CO)[nH]2)cc1 (centres unmarked) [3-(5-(4-nitrophenyl)-4H-1,2,4-triazol-3-ylthio)propane-1,2-diol] | AURORA-A; also recorded: FLT-3; also recorded: DYRK2
21 | COc1ccc(-c2nnc(SCc3cccnc3)[nH]2)cc1 [3-((5-(4-methoxyphenyl)-4H-1,2,4-triazol-3-ylthio)methyl)pyridine] | AURORA-A; also recorded: FLT-3; also recorded: DYRK2
22 | Cc1nnc(SCc2ccccc2)n1Cc1ccc(Cl)c(Cl)c1 [3-(benzylthio)-4-(3,4-dichlorobenzyl)-5-methyl-4H-1,2,4-triazole] | GSK3-α; also recorded: GSK3-β; also recorded: c-TAK1
23 | Clc1cccc(-c2nnc(SCc3ccccc3)[nH]2)c1 [3-(benzylthio)-5-(3-chlorophenyl)-4H-1,2,4-triazole] | AURORA-A; also recorded: c-TAK1; also recorded: FLT-3

Now from value to molecule:

Row | protein kinase against which the compound exhibits inhibitory activity (Table 3) | Compound
24 | AURORA-A | O=C(O)CCSc1nnc(-c2cccnc2)n1-c1ccccc1 [3-(4-phenyl-5-(pyridin-3-yl)-4H-1,2,4-triazol-3-ylthio)propanoic acid]
25 | MAPKALPK-2 and AKT1 | COCCCn1c(C)nnc1SCc1ccc(C(C)(C)C)cc1 [3-(4-tert-butylbenzylthio)-4-(3-methoxypropyl)-5-methyl-4H-1,2,4-triazole]
26 | AURORA-A | CCOCCSc1nnc(-c2cccnc2)[nH]1 [3-(5-(2-ethoxyethylthio)-4H-1,2,4-triazol-3-yl)pyridine]
27 | CHEK2 | Cn1c(SCc2ccc(Cl)cc2)nnc1-c1cccnc1 [3-(5-(4-chlorobenzylthio)-4-methyl-4H-1,2,4-triazol-3-yl)pyridine]
28 | MAPKAPK-2 | CCn1c(SCc2ccc(C(C)(C)C)cc2)nnc1-c1cccnc1 [3-(5-(4-tert-butylbenzylthio)-4-ethyl-4H-1,2,4-triazol-3-yl)pyridine]
29 | PDGFRR-α | Cn1c(SCc2ccc(C(C)(C)C)cc2)nnc1-c1cccnc1 [3-(5-(4-tert-butylbenzylthio)-4-methyl-4H-1,2,4-triazol-3-yl)pyridine]
30 | AURORA-A | c1cncc(-c2nnc(SCC3CCCO3)[nH]2)c1 (centres unmarked) [3-(5-((tetrahydrofuran-2-yl)methylthio)-4H-1,2,4-triazol-3-yl)pyridine]
31 | AURORA-A | Cc1ccc(-n2c(SCc3ccccc3)nnc2-c2cccnc2)cc1 [3-(5-(benzylthio)-4-p-tolyl-4H-1,2,4-triazol-3-yl)pyridine]
32 | MSK1 | c1ccc(CCn2c(SCc3ccccc3)nnc2-c2cccnc2)cc1 [3-(5-(benzylthio)-4-phenethyl-4H-1,2,4-triazol-3-yl)pyridine]
33 | FLT-3; also recorded: AURORA-A | c1cncc(-c2nnc(SCC3CC3)[nH]2)c1 [3-(5-(cyclopropylmethylthio)-4H-1,2,4-triazol-3-yl)pyridine]
34 | AURORA-A | OCC(O)CSc1nnc(-c2cccnc2)[nH]1 (centres unmarked) [3-(5-(pyridin-3-yl)-4H-1,2,4-triazol-3-ylthio)propane-1,2-diol]
35 | c-TAK1 | CN(C)CCCSc1nnc(C(C)(C)C)[nH]1 [3-(5-tert-butyl-4H-1,2,4-triazol-3-ylthio)-N,N-dimethylpropan-1-amine]
36 | AURORA-A | COc1cccc(OCc2nnc(SC)n2C)c1 [3-((3-methoxyphenoxy)methyl)-4-methyl-5-(methylthio)-4H-1,2,4-triazole]
37 | CDK2-cyclinA; also recorded: AURORA-A | CCCCSc1nnc(COc2ccc(Br)cc2)n1CC [3-((4-bromophenoxy)methyl)-5-(butylthio)-4-ethyl-4H-1,2,4-triazole]
38 | AURORA-A | CCSc1nnc(COc2ccc(CC)cc2)n1C [3-((4-ethylphenoxy)methyl)-5-(ethylthio)-4-methyl-4H-1,2,4-triazole]
39 | FLT-3 | Clc1ccc(OCc2nnc(SCc3cccnc3)[nH]2)cc1 [3-((5-((4-chlorophenoxy)methyl)-4H-1,2,4-triazol-3-ylthio)methyl)pyridine]
40 | AURORA-A | CC(C)Cc1nnc(SCc2ccccc2)n1Cc1ccc(Cl)c(Cl)c1 [3-(benzylthio)-4-(3,4-dichlorobenzyl)-5-isobutyl-4H-1,2,4-triazole]
41 | c-TAK1 | CCC(c1ccccc1)c1nnc(SCc2ccccc2)n1CCc1ccc(C)cc1 (centres unmarked) [3-(benzylthio)-4-(4-methylphenethyl)-5-(1-phenylpropyl)-4H-1,2,4-triazole]
42 | GSK3-α | Cc1nnc(SCc2ccccc2)n1Cc1ccco1 [3-(benzylthio)-4-(furan-2-ylmethyl)-5-methyl-4H-1,2,4-triazole]
43 | GSK3-α | CCn1c(C)nnc1SCc1ccccc1 [3-(benzylthio)-4-ethyl-5-methyl-4H-1,2,4-triazole]
44 | INSR and SYK and PAK2 | COc1ccc(-c2nnc(SCc3ccccc3)n2-c2ccccc2)cc1 [3-(benzylthio)-5-(4-methoxyphenyl)-4-phenyl-4H-1,2,4-triazole]
